# Data as given in US7138361B2, “Herbicidal heterocycles” (E. I. du Pont de Nemours and Company, priority 2000, dated 2006).
# Assays:
# Type in all cases: in vivo
# [1] = test system: Surinam grass (Brachiaria decumbens); test: Test B postemergence; settings: 13 to 15 days
# Outline: (§1)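 Seeds were planted and sprayed preemergence with test chemical in a non-phytotoxic solvent mixture containing surfactant; postemergence plants (2 to 18 cm, 1- to 4-leaf stage) received the same formulation. Greenhouse hold 13 to 15 days, then visual rating versus untreated controls on a 0–100 scale (0 no effect, 100 complete control).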
# [2] = test system: barnyardgrass (Echinochloa crus-galli); test: Test B postemergence; settings: 13 to 15 days
# Outline: as §1
# [3] = test system: cocklebur (Xanthium strumarium); test: Test B postemergence; settings: 13 to 15 days
# Outline: as §1
# corn (Zea mays) [4] = test: Test B postemergence; settings: 13 to 15 days
# Outline: as §1
# [5] = test system: crabgrass (Digitaria sanguinalis); test: Test B postemergence; settings: 13 to 15 days
# Outline: as §1
# [6] = test system: giant foxtail (Setaria faberii); test: Test B postemergence; settings: 13 to 15 days
# Outline: as §1
# [7] = test system: morning glory (Ipomoea hederacea); test: Test B postemergence; settings: 13 to 15 days
# Outline: as §1
# [8] = test system: pigweed (Amaranthus retroflexus); test: Test B postemergence; settings: 13 to 15 days
# Outline: as §1
# [9] = test system: velvetleaf (Abutilon theophrasti); test: Test B postemergence; settings: 13 to 15 days
# Outline: as §1
# [10] = test system: wheat (Triticum aestivum); test: Test B postemergence; settings: 13 to 15 days
# Outline: as §1
# wild oat (Avena fatua) = test: Test B postemergence; settings: 13 to 15 days
# Outline: as §1
# Nightshade = test: Test C preemergence
# Sunflower [11] = test: Test C preemergence; settings: Rate 62 g/ha; scale 0 to 100, 0 no effect, 100 complete control
# [12] = test system: common ragweed (Ambrosia elatior); test: Test C preemergence
# Outline: (§2)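 Formulation: non-phytotoxic solvent mix incl. surfactant. Pre: applied right after planting. Post: 1–4-leaf seedlings. Read: visual 0–100, day 12–14, greenhouse.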
# corn (Zea mays) [13] = test: Test C preemergence
# Outline: as §2
# [14] = test system: goosegrass (Eleusine indica); test: Test C preemergence
# Outline: as §2
# [15] = test system: johnsongrass (Sorghum halepense); test: Test C preemergence
# Outline: as §2
# [16] = test system: lambsquarters (Chenopodium album); test: Test C preemergence
# Outline: as §2
# [17] = test system: morningglory (Ipomoea hederacea); test: Test C preemergence
# Outline: as §2
# [18] = test system: velvetleaf (Abutilon theophrasti); test: Test C preemergence
# Outline: as §2
# [19] = test system: yellow nutsedge (Cyperus esculentus); test: Test C preemergence
# Outline: as §2
# Sunflower [20] = test: Test C preemergence; settings: Rate 250 g/ha, visual evaluation after 12 to 14 days
# [21] = Rate 125 g/ha, scale 0 (no effect) to 100 (complete control)
# [22] = Rate 500 g/ha, scale 0 to 100, 0 is no effect, 100 is complete control
# [23] = Rate 62 g/ha, scale 0 to 100, 0 no effect, 100 complete control
# [24] = preemergence, Rate 31 g/ha, scale 0 to 100
# [25] = preemergence, Rate 250 g/ha, visual evaluation after 12 to 14 days
# [26] = preemergence, Rate 125 g/ha, scale 0 to 100, 0 no effect, 100 complete control
smiles,measurement,setting,value
O=C1C(n2ccc(C3CCC3)n2)SCN1c1cccc(C(F)(F)F)c1 (centres unmarked) [Compound 37],"Plant response rating, Surinam grass",[1]; [21],0
same,"Plant response rating, Surinam grass",[1]; [22],0
same,"Plant response rating, Barnyardgrass",[2]; [21],80
same,"Plant response rating, Barnyardgrass",[2]; [22],100
same,"Plant response rating, Cocklebur",[3]; [21],10
same,"Plant response rating, Cocklebur",[3]; [22],30
same,"Plant response rating, Corn",corn (Zea mays) [4]; [21],0
same,"Plant response rating, Corn",corn (Zea mays) [4]; [22],20
same,"Plant response rating, Crabgrass",[5]; [21],0
same,"Plant response rating, Crabgrass",[5]; [22],100
same,"Plant response rating, Foxtail, Giant",[6]; [21],60
same,"Plant response rating, Foxtail, Giant",[6]; [22],80
same,"Plant response rating, Morningglory",[7]; [21],20
same,"Plant response rating, Morningglory",[7]; [22],40
same,"Plant response rating, Pigweed",[8]; [21],20
same,"Plant response rating, Pigweed",[8]; [22],90
same,"Plant response rating, Velvetleaf",[9]; [21],0
same,"Plant response rating, Velvetleaf",[9]; [22],0
same,"Plant response rating, Wheat",[10]; [21],0
same,"Plant response rating, Wheat",[10]; [22],0
same,"Plant response rating, Wild Oat",wild oat (Avena fatua); [21],0
same,"Plant response rating, Wild Oat",wild oat (Avena fatua); [22],0
same,"Plant response rating, Nightshade","Nightshade; Rate 31 g/ha, scale 0 to 100",0
same,"Plant response rating, Nightshade",Nightshade; [23],0
same,"Plant response rating, Nightshade","Nightshade; Rate 125 g/ha, scale 0 to 100, 0 no effect, 100 complete control",0
same,"Plant response rating, Sunflower",Sunflower [11],0
same,"Plant response rating, Ragweed, Common",[12]; [23],0
same,"Plant response rating, Ragweed, Common",[12]; [24],0
same,"Plant response rating (0 to 100), Ragweed, Common",[12]; [25],60
same,"Plant response rating, Ragweed, Common",[12]; [26],20
same,"Plant response rating, Corn",corn (Zea mays) [13]; [23],0
same,"Plant response rating, Corn",corn (Zea mays) [13]; [24],0
same,"Plant response rating (0 to 100), Corn",corn (Zea mays) [13]; [25],40
same,"Plant response rating, Corn",corn (Zea mays) [13]; [26],40
same,"Plant response rating, Goosegrass",[14]; [23],90
same,"Plant response rating, Goosegrass",[14]; [24],60
same,"Plant response rating (0 to 100), Goosegrass",[14]; [25],100
same,"Plant response rating, Goosegrass",[14]; [26],90
same,"Plant response rating, Johnsongrass",[15]; [23],30
same,"Plant response rating, Johnsongrass",[15]; [24],20
same,"Plant response rating (0 to 100), Johnsongrass",[15]; [25],90
same,"Plant response rating, Johnsongrass",[15]; [26],30
same,"Plant response rating, Lambsquarters",[16]; [23],100
same,"Plant response rating, Lambsquarters",[16]; [24],100
same,"Plant response rating (0 to 100), Lambsquarters",[16]; [25],100
same,"Plant response rating, Lambsquarters",[16]; [26],100
same,"Plant response rating, Morningglory",[17]; [23],0
same,"Plant response rating, Morningglory",[17]; [24],0
same,"Plant response rating (0 to 100), Morningglory",[17]; [25],30
same,"Plant response rating, Morningglory",[17]; [26],0
same,"Plant response rating, Velvetleaf",[18]; [23],0
same,"Plant response rating, Velvetleaf",[18]; [24],0
same,"Plant response rating (0 to 100), Velvetleaf",[18]; [25],20
same,"Plant response rating, Velvetleaf",[18]; [26],20
same,"Plant response rating, Nutsedge",[19]; [23],20
same,"Plant response rating, Nutsedge",[19]; [24],0
same,"Plant response rating (0 to 100), Nutsedge",[19]; [25],30
same,"Plant response rating, Nutsedge",[19]; [26],20
same,"Plant response rating (0 to 100), Sunflower",Sunflower [20],60
